The structures appear in SMILES notation.

The target of experiment [1] is T1, PMM1 (phosphomannomutase1) (Homo sapiens, UniProt Q92871).
T1 construct: recombinant, E. coli BL21(DE3), purified as in earlier work (DEAE, butyl Sepharose); dimer; no tag mentioned
T1 sequence (Q92871 2-262): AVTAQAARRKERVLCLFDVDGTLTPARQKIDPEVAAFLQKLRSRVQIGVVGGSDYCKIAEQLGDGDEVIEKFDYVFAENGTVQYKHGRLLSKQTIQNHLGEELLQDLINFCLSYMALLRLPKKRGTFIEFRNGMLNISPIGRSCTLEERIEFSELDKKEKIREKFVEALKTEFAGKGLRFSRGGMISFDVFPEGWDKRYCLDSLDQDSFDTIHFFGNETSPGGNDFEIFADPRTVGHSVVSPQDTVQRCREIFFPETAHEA
The experiment is described as follows: thermal shift assay, Sypro Orange. The class given is binding. The settings on record: 0-1 mM Glc-1,6-P2; MgCl2 1 mM, pH 7.5.

Experiment [2] has as its target T2, PMM2 (phosphomannomutase2) (Homo sapiens, UniProt O15305).
T2 construct: recombinant, E. coli BL21(DE3), purified as in earlier work; no tag mentioned
T2 sequence (O15305 2-246): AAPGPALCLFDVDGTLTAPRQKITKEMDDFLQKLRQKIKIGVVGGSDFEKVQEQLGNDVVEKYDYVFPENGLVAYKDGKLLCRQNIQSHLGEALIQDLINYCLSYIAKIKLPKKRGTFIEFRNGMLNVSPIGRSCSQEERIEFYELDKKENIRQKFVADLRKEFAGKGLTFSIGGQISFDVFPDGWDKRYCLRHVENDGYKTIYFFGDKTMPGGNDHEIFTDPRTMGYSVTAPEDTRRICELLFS
In words: thermal shift assay, Sypro Orange. In kind it is binding. Particulars: 0-1 mM Glc-1,6-P2; MgCl2 1 mM, pH 7.5.

Experiment [3] concerns the target T2, PMM2 (phosphomannomutase2). In words: coupled NADPH assay of phosphoglucomutase activity. The class given is biochemical. The settings on record: 27 μM Glc-1,6-P2; MgCl2 5 mM, pH 7.5, 32°C.
The target of experiment [4] is T1, PMM1 (phosphomannomutase1). The experiment is described as follows: coupled NADPH assays of phosphoglucomutase and Glc-1,6-P2 phosphatase activity. The class given is biochemical. Particulars: PGM: 40 μM Glc-1-P, 27 μM Glc-1,6-P2, phosphatase: 0.145 mM Glc-1,6-P2.

Consider `O=P(O)(O)OC[C@H]1O[C@H](OP(=O)(O)O)[C@H](O)[C@@H](O)[C@@H]1O` [Glc-1,6-P2], for which the figures for the Tm entry in experiment [1] and in experiment [2] were “effect of Glc-1,6-P2 on the melting temperature of PMM1 is seen only at very high concentrations” and “The bis-phosphate hexose binds PMM2”, respectively.

Regarding `O=P(O)(O)O[C@H]1O[C@H](CO)[C@@H](O)[C@H](O)[C@H]1O` [Glc-1-P], the Michaelis constant (Km) (usually the substrate concentration at which the rate is half of its maximum) in experiment [3] worked out at 8.2 ± 0.7 µM.

Consider `O=P(O)(O)C(Cl)(Cl)P(=O)(O)O` [clodronate, (Dichloro-phosphono-methyl)phosphonic acid], for which the “activity at 2.8 mM clodronate” value in experiment [4] was “clodronate as a novel specific inhibitor of PMM1 that decreases both PGM and Glc-1,6-P2-ase activities”.
